Source: US20180333382A1, “PHARMACEUTICAL COMPOSITIONS COMPRISING DGLA AND USE OF SAME” (DS Biopharma Limited, priority 2017, published 2018)
“And” between values parts separate entries of the source, which are not always exact repeats. Identical values can stand only once.

Tests used:
[1] = Phase one study part 2: free and total DGLA in skin blister fluid; type: in vivo, human
Excerpt: The PK of DGLA in human skin following multiple doses of DS107G capsule given once daily for 28 days to healthy subjects.

[2] = tested on: spontaneous hypertensive rats; assay: Arterial pressure and phenylephrine-induced hypertensive response after seven days of gavage (DGLA, aspirin, DGLA + aspirin); type: in vivo, rat; settings: for Mean arterial pressure at baseline, Average SAP / Mean arterial pressure with an intravenous dose of Phenylephrine 20 μg/kg, Average SAP / Mean arterial pressure at baseline, individual rats / Mean arterial pressure with an intravenous dose of Phenylephrine 20 μg/kg, individual rats: seven consecutive days of gavage; for Mean arterial pressure at baseline, individual rats / Mean arterial pressure with an intravenous dose of Phenylephrine 20 μg/kg, individual rats: Rat #1-#5; for Arterial pressure, Diastol / Arterial pressure, Systol / Mean systemic arterial pressure: seven days of gavage, before phenylephrine
Experimental: An in vivo investigation of anti-hypertension efficacy following co-administration of DGLA and aspirin in spontaneous hypertensive rats was conducted. This experiment investigated the efficacy of DGLA when co-administered chronically with aspirin to reduce the hypertensive response induced acutely by phenylephrine in spontaneous hypertensive rats. Spontaneously hypertensive adult male rats (250-300 g), bred by Charles River Laboratories, were used for this assay. The animals were identified upon arrival as per CCPA guidelines. The animals were pair-housed by group (low dose+aspirin, high dose+aspirin or aspirin alone) for the duration of the oral gavage prior to surgery. All animal care and vivarium maintenance was recorded, with documents kept at the test facility.
The concentrations of DGLA to be tested (50 and 500 mg/kg) as well as the concentration of aspirin (10 mg/kg) were selected by the Sponsor based on information available at the time of design of this study. They were selected to cover a range of concentrations useful for the identification of the mechanism of action of the test article.
All solution preparations were documented on a Solution Contents Form, defining labelling information and all relevant information on reagents: batch number, storage conditions, contents, and preparation/expiry dates.
The test article was formulated using olive oil as the vehicle. This stock solution was then administered by oral gavage once per day for seven consecutive days. A low and a high dose (50 mg/kg and 500 mg/kg) were tested.
A 5 mg/ml stock solution of aspirin was prepared by dissolving the appropriate amount of aspirin in 100% DMSO which was then diluted in water. The concentration of DMSO was less than 1%. The appropriate volume was administered by oral gavage to each animal once per day for seven consecutive days. The stock solution was stored at room temperature and was considered stable for the duration of the gavage.
The appropriate volume was administered to each animal by an intravenous injection at the end of the experiment on the surgery day. The stock solution was stored at 4° C. and was considered stable for the duration of the experiment.
A stock solution of phenylephrine of 1 mg/ml were prepared in PBS (pH=7.4±0.05). The stock solution was stored at 4° C. The expiration date was set at 14 days after preparation.
Male spontaneous hypertensive rats weighing approximately 300 g arrived at the facility at least two days before beginning the oral gavage. Animals were assigned to one of three groups (low dose+aspirin, high dose+aspirin, and aspirin), and were pair-housed during the acclimation period. Each group (n=4) received the appropriate compound by oral gavage using a 16 G feeding needle. The stock solution was administered once per day for seven consecutive days. On the seventh day of administration, the animals underwent surgery and hypertensive monitoring.
Rats were anesthetized with a 2.5-3.0% isoflurane-O2 mixture in an induction box. When the animals were removed from the induction box, they were connected onto a nose cone to maintain anesthesia during the tracheotomy. The animals were tracheotomised with an endotracheal tube (7 cm length from connector to the tip made with a PE205 tube from BD and a 16 G needle) to facilitate spontaneous breathing, stabilize hemodynamics, and to keep the rat under anesthesia with an isoflurane-O2 mixture. Two catheters were inserted: one in the right femoral artery for systemic arterial pressure (SAP) measurement, and one in the right femoral vein for delivery of the hypertensor and positive control. ECG signals were acquired with ECG contacts placed in a Lead-1 configuration on the anaesthetized animal, and a pulse oxymeter was attached to the animal's hind paw to enable continuous monitoring of the general condition of the rat during the surgical procedure.

[3] = Phase one study: safety and tolerability (TEAEs, vital signs, ECG); settings: for tolerability: healthy volunteers
Experimental: Screening procedures were conducted for both parts one and two before the start of the study on Day −1 (Baseline) by evaluating the safety assessments.
Subjects were monitored throughout their confinement at the Phase 1 unit for adverse reactions to the study drug and/or procedures.
Safety analyses were performed on the safety population tabulated by treatment arm, cohort, and visit. All safety data were characterized by descriptive statistical tools. […] Evaluation of safety assessments was performed in a descriptive manner. Continuous variables were characterized by their mean, standard deviation (SD), median, minimum and maximum values; discrete variables were characterized by their absolute (frequency) and relative (percentage) distribution.

## CCCCC/C=C\C/C=C\C/C=C\CCCCCCC(=O)O [DS107G, Dihomo gamma linolenic acid]
[1]; Days 1, 8, 14 and 28
  mean free DGLA concentrations in skin blister fluid with a doubling in dose: approximately doubled
[1]; both 2000 and 4000 mg daily
  mean free DGLA concentrations in skin blister fluid, Day 28 vs Day 1: about 3 fold
[1]; same dose, Day 8 and Day 14 (but not Day 28)
  mean concentrations of free DGLA, plasma vs skin blister fluid: somewhat similar in plasma and skin blister fluid
[1]; same dose, after Day 1
  mean concentrations of total DGLA, plasma vs skin blister fluid: much higher in plasma than in skin blister fluid
[2]; DGLA 50 mg/kg
  Mean arterial pressure at baseline, Average SAP: 74.5 mm of Hg
  Mean arterial pressure with an intravenous dose of Phenylephrine 20 μg/kg, Average SAP: 115.7 mm of Hg
  Mean arterial pressure at baseline, individual rats: 51.77 mm of Hg and 87.81 mm of Hg and 62.11 mm of Hg and 86.01 mm of Hg and 84.93 mm of Hg
  Mean arterial pressure with an intravenous dose of Phenylephrine 20 μg/kg, individual rats: 91.82 mm of Hg and 137.84 mm of Hg and 105.44 mm of Hg and 132.68 mm of Hg and 110.72 mm of Hg
  Arterial pressure, Diastol: 75 mmHg
  Arterial pressure, Systol: 120 mmHg
  Mean systemic arterial pressure: 90 mmHg
[2]; DGLA 500 mg/kg
  Mean arterial pressure at baseline, Average SAP: 82.2 mm of Hg
  Mean arterial pressure with an intravenous dose of Phenylephrine 20 μg/kg, Average SAP: 112.1 mm of Hg
  Mean arterial pressure at baseline, individual rats: 64.81 mm of Hg and 91.55 mm of Hg and 94.41 mm of Hg and 66.56 mm of Hg and 93.64 mm of Hg
  Mean arterial pressure with an intravenous dose of Phenylephrine 20 μg/kg, individual rats: 105.21 mm of Hg and 119.33 mm of Hg and 118.12 mm of Hg and 97.17 mm of Hg and 120.82 mm of Hg
  Arterial pressure, Diastol: 80 mmHg
  Arterial pressure, Systol: 135 mmHg
  Mean systemic arterial pressure: 98 mmHg
[2]; DGLA 50 or 500 mg/kg alone, effect eliminated by aspirin
  effect on arterial pressure in spontaneously hypertensive rats: successfully decreases the arterial pressure
[2]; spontaneous hypertensive rats treated with DGLA alone, observed previously
  lowering of the mean systemic arterial blood pressure: up to 25%
[3]; 2000- or 4000-mg once daily for 28 consecutive days
  tolerability: tolerated well
[3]; 2000-mg group, 3/6
  subjects reporting diarrhea: 50%
[3]; 4000-mg group, 4/6
  subjects reporting diarrhea: 66.7%
[3]; 4000-mg treatment group, 4/6, 10 events
  subjects reporting nausea: 66.7%
[3]; multi-dose study
  deaths: no deaths
[3]; multiple dose
  severe TEAEs: no severe TEAEs
[3]; multiple dose, 11/12 active-treated subjects, total of 52 TEAEs
  incidence of TEAEs: 91.73%
[3]; single dose 500, 1000, 2000 or 4000 mg
  tolerability: well tolerated
[3]; single dose, 5/24 active-treated subjects
  incidence of diarrhea (loose stool): 20.8%
